Reference: patent US20230111310A1, “CARBOXYLIC ACID DERIVATIVE-SUBSTITUTED IMINO ARYL COMPOUND, PREPARATION METHOD THEREFOR, HERBICIDAL COMPOSITION AND USE THEREOF” (Qingdao Kingagroot Chemical Compound Co., Ltd., priority 2020, published 2023)

Columns and labels:
Assay in all cases: Weeding effect in post-emergence stage
Assay type in all cases: in vivo
Echinochloa crusgalli = conditions: for Weeding effect in post-emergence stage, Echinochloa crusgalli: level of fresh weight growth control rate; for Weeding effect in post-emergence stage, Echinochloa crusgalli (level): fresh weight control rate level
Procedure, shortened: (§1)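 Pot-grown greenhouse plants sprayed at 2–3 leaf stage, 2 weeks after sowing, with compound in acetone/Tween 80 plus methyl oleate emulsifiable concentrate (1.5 liter/ha) at 500–7.5 g/ha. Growth control rated 3 weeks after treatment; mean of three replicates.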

Alopecurus japonicus = conditions: for Weeding effect in post-emergence stage, Alopecurus japonicus: level of fresh weight growth control rate; for Weeding effect in post-emergence stage, Alopecurus japonicus (level): fresh weight control rate level
Procedure, shortened: as §1

Digitaria sanguinalis = conditions: for Weeding effect in post-emergence stage, Digitaria sanguinalis: level of fresh weight growth control rate; for Weeding effect in post-emergence stage, Digitaria sanguinalis (level): fresh weight control rate level
Procedure, shortened: as §1

Eleusine indica = conditions: for Weeding effect in post-emergence stage, Eleusine indica: level of fresh weight growth control rate; for Weeding effect in post-emergence stage, Eleusine indica (level): fresh weight control rate level
Procedure, shortened: as §1

Setaria viridis = conditions: for Weeding effect in post-emergence stage, Setaria viridis: level of fresh weight growth control rate; for Weeding effect in post-emergence stage, Setaria viridis (level): fresh weight control rate level
Procedure, shortened: as §1

Abutilon theophrasti = conditions: for Weeding effect in post-emergence stage, Abutilon theophrasti: level of fresh weight growth control rate; for Weeding effect in post-emergence stage, Abutilon theophrasti (level): fresh weight control rate level
Procedure, shortened: as §1

CC(C)OC(=O)[C@@H](C)O/N=C/c1cc(-n2c(=O)n(C)c(=S)n(C)c2=O)c(F)cc1Cl [5(R)]
Weeding effect in post-emergence stage, Echinochloa crusgalli (Echinochloa crusgalli; Dose 15 g/ha): 5 (Level 5: growth control rate is above 85%) | Weeding effect in post-emergence stage, Alopecurus japonicus (Alopecurus japonicus; Dose 15 g/ha): 5 (Level 5: growth control rate is above 85%) | Weeding effect in post-emergence stage, Digitaria sanguinalis (Digitaria sanguinalis; Dose 15 g/ha): 5 (Level 5: growth control rate is above 85%) | Weeding effect in post-emergence stage, Eleusine indica (Eleusine indica; Dose 15 g/ha): 5 (Level 5: growth control rate is above 85%) | Weeding effect in post-emergence stage, Setaria viridis (Setaria viridis; Dose 15 g/ha): 5 (Level 5: growth control rate is above 85%) | Weeding effect in post-emergence stage, Abutilon theophrasti (Abutilon theophrasti; Dose 15 g/ha): 5 (Level 5: growth control rate is above 85%)

C[C@@H](O/N=C/c1cc(-n2c(=O)cc(C(F)(F)F)n(C)c2=O)c(F)cc1Cl)C(=O)SCc1ccccc1 [409(R)]
Weeding effect in post-emergence stage, Echinochloa crusgalli (level) (Echinochloa crusgalli; Dose 30 g/ha): 5 (Level 5: growth control rate is above 85%) | Weeding effect in post-emergence stage, Alopecurus japonicus (level) (Alopecurus japonicus; Dose 30 g/ha): 5 (Level 5: growth control rate is above 85%) | Weeding effect in post-emergence stage, Digitaria sanguinalis (level) (Digitaria sanguinalis; Dose 30 g/ha): 5 (Level 5: growth control rate is above 85%) | Weeding effect in post-emergence stage, Eleusine indica (level) (Eleusine indica; Dose 30 g/ha): 5 (Level 5: growth control rate is above 85%) | Weeding effect in post-emergence stage, Setaria viridis (level) (Setaria viridis; Dose 30 g/ha): 5 (Level 5: growth control rate is above 85%) | Weeding effect in post-emergence stage, Abutilon theophrasti (level) (Abutilon theophrasti; Dose 30 g/ha): 5 (Level 5: growth control rate is above 85%)

CCOC(=O)[C@@H](C)O/N=C/c1cc(-n2c(=O)n(C)c(=S)n(C)c2=O)c(F)cc1Cl [3(R)]
Weeding effect in post-emergence stage, Echinochloa crusgalli (Echinochloa crusgalli; Dose 15 g/ha): 5 (Level 5: growth control rate is above 85%) | Weeding effect in post-emergence stage, Alopecurus japonicus (Alopecurus japonicus; Dose 15 g/ha): 4 (Level 4: growth control rate is greater than or equal to 60% and less than 85%) | Weeding effect in post-emergence stage, Digitaria sanguinalis (Digitaria sanguinalis; Dose 15 g/ha): 5 (Level 5: growth control rate is above 85%) | Weeding effect in post-emergence stage, Eleusine indica (Eleusine indica; Dose 15 g/ha): 5 (Level 5: growth control rate is above 85%) | Weeding effect in post-emergence stage, Setaria viridis (Setaria viridis; Dose 15 g/ha): 5 (Level 5: growth control rate is above 85%) | Weeding effect in post-emergence stage, Abutilon theophrasti (Abutilon theophrasti; Dose 15 g/ha): 5 (Level 5: growth control rate is above 85%)

COC(=O)C(C)O/N=C/c1cc(-n2c(=O)n(C)c(=S)n(C)c2=O)c(F)cc1C#N (racemic) [Compound 87]
Weeding effect in post-emergence stage, Echinochloa crusgalli (Echinochloa crusgalli; Dose 15 g/ha): 5 (Level 5: growth control rate is above 85%) | Weeding effect in post-emergence stage, Alopecurus japonicus (Alopecurus japonicus; Dose 15 g/ha): 5 (Level 5: growth control rate is above 85%) | Weeding effect in post-emergence stage, Digitaria sanguinalis (Digitaria sanguinalis; Dose 15 g/ha): 5 (Level 5: growth control rate is above 85%) | Weeding effect in post-emergence stage, Eleusine indica (Eleusine indica; Dose 15 g/ha): 5 (Level 5: growth control rate is above 85%) | Weeding effect in post-emergence stage, Setaria viridis (Setaria viridis; Dose 15 g/ha): 5 (Level 5: growth control rate is above 85%) | Weeding effect in post-emergence stage, Abutilon theophrasti (Abutilon theophrasti; Dose 15 g/ha): 5 (Level 5: growth control rate is above 85%)

CCCOC(=O)OC(=O)[C@@H](C)O/N=C/c1cc(-n2c(=O)cc(C(F)(F)F)n(C)c2=O)c(F)cc1Cl [236(R)]
Weeding effect in post-emergence stage, Echinochloa crusgalli (Echinochloa crusgalli; Dose 60 g/ha): 5 (Level 5: growth control rate is above 85%) | Weeding effect in post-emergence stage, Alopecurus japonicus (Alopecurus japonicus; Dose 60 g/ha): 5 (Level 5: growth control rate is above 85%) | Weeding effect in post-emergence stage, Digitaria sanguinalis (Digitaria sanguinalis; Dose 60 g/ha): 5 (Level 5: growth control rate is above 85%) | Weeding effect in post-emergence stage, Eleusine indica (Eleusine indica; Dose 60 g/ha): 5 (Level 5: growth control rate is above 85%) | Weeding effect in post-emergence stage, Setaria viridis (Setaria viridis; Dose 60 g/ha): 5 (Level 5: growth control rate is above 85%) | Weeding effect in post-emergence stage, Abutilon theophrasti (Abutilon theophrasti; Dose 60 g/ha): 5 (Level 5: growth control rate is above 85%)

COC(=O)C(CF)O/N=C/c1cc(-n2c(=O)cc(C(F)(F)F)n(C)c2=O)c(F)cc1Cl (racemic) [Compound 463]
Weeding effect in post-emergence stage, Echinochloa crusgalli (level) (Echinochloa crusgalli; Dose 15 g/ha): 5 (Level 5: growth control rate is above 85%) | Weeding effect in post-emergence stage, Alopecurus japonicus (level) (Alopecurus japonicus; Dose 15 g/ha): 5 (Level 5: growth control rate is above 85%) | Weeding effect in post-emergence stage, Digitaria sanguinalis (level) (Digitaria sanguinalis; Dose 15 g/ha): 5 (Level 5: growth control rate is above 85%) | Weeding effect in post-emergence stage, Eleusine indica (level) (Eleusine indica; Dose 15 g/ha): 5 (Level 5: growth control rate is above 85%) | Weeding effect in post-emergence stage, Setaria viridis (level) (Setaria viridis; Dose 15 g/ha): 5 (Level 5: growth control rate is above 85%) | Weeding effect in post-emergence stage, Abutilon theophrasti (level) (Abutilon theophrasti; Dose 15 g/ha): 5 (Level 5: growth control rate is above 85%)

COC(=O)C(C)SN=Cc1cc(-n2c(=O)n(C)c(=S)n(C)c2=O)c(F)cc1Cl (stereo not drawn) [Compound 692]
Weeding effect in post-emergence stage, Echinochloa crusgalli (level) (Echinochloa crusgalli; Dose 15 g/ha): 5 (Level 5: growth control rate is above 85%) | Weeding effect in post-emergence stage, Alopecurus japonicus (level) (Alopecurus japonicus; Dose 15 g/ha): 5 (Level 5: growth control rate is above 85%) | Weeding effect in post-emergence stage, Digitaria sanguinalis (level) (Digitaria sanguinalis; Dose 15 g/ha): 5 (Level 5: growth control rate is above 85%) | Weeding effect in post-emergence stage, Eleusine indica (level) (Eleusine indica; Dose 15 g/ha): 5 (Level 5: growth control rate is above 85%) | Weeding effect in post-emergence stage, Setaria viridis (level) (Setaria viridis; Dose 15 g/ha): 5 (Level 5: growth control rate is above 85%) | Weeding effect in post-emergence stage, Abutilon theophrasti (level) (Abutilon theophrasti; Dose 15 g/ha): 5 (Level 5: growth control rate is above 85%)

C[C@@H](O/N=C/c1cc(-n2c(=O)cc(C(F)(F)F)n(C)c2=O)c(F)cc1Cl)C(=O)OCc1ccncc1 [303(R)]
Weeding effect in post-emergence stage, Echinochloa crusgalli (Echinochloa crusgalli; Dose 15 g/ha): 5 (Level 5: growth control rate is above 85%) | Weeding effect in post-emergence stage, Alopecurus japonicus (Alopecurus japonicus; Dose 15 g/ha): 5 (Level 5: growth control rate is above 85%) | Weeding effect in post-emergence stage, Digitaria sanguinalis (Digitaria sanguinalis; Dose 15 g/ha): 5 (Level 5: growth control rate is above 85%) | Weeding effect in post-emergence stage, Eleusine indica (Eleusine indica; Dose 15 g/ha): 5 (Level 5: growth control rate is above 85%) | Weeding effect in post-emergence stage, Setaria viridis (Setaria viridis; Dose 15 g/ha): 5 (Level 5: growth control rate is above 85%) | Weeding effect in post-emergence stage, Abutilon theophrasti (Abutilon theophrasti; Dose 15 g/ha): 5 (Level 5: growth control rate is above 85%)

CC(O/N=C/c1cc(-n2c(=O)cc(C(F)(F)F)n(C)c2=O)c(F)cc1Cl)C(=O)OCCO (racemic) [Compound 228]
Weeding effect in post-emergence stage, Echinochloa crusgalli (Echinochloa crusgalli; Dose 15 g/ha): 5 (Level 5: growth control rate is above 85%) | Weeding effect in post-emergence stage, Alopecurus japonicus (Alopecurus japonicus; Dose 15 g/ha): 5 (Level 5: growth control rate is above 85%) | Weeding effect in post-emergence stage, Digitaria sanguinalis (Digitaria sanguinalis; Dose 15 g/ha): 5 (Level 5: growth control rate is above 85%) | Weeding effect in post-emergence stage, Eleusine indica (Eleusine indica; Dose 15 g/ha): 5 (Level 5: growth control rate is above 85%) | Weeding effect in post-emergence stage, Setaria viridis (Setaria viridis; Dose 15 g/ha): 5 (Level 5: growth control rate is above 85%) | Weeding effect in post-emergence stage, Abutilon theophrasti (Abutilon theophrasti; Dose 15 g/ha): 5 (Level 5: growth control rate is above 85%)

CCC(O/N=C/c1cc(-n2c(=O)n(C)c(=S)n(C)c2=O)c(F)cc1Cl)C(=O)OC (stereo not drawn) [Compound 72]
Weeding effect in post-emergence stage, Echinochloa crusgalli (Echinochloa crusgalli; Dose 15 g/ha): 5 (Level 5: growth control rate is above 85%) | Weeding effect in post-emergence stage, Alopecurus japonicus (Alopecurus japonicus; Dose 15 g/ha): 4 (Level 4: growth control rate is greater than or equal to 60% and less than 85%) | Weeding effect in post-emergence stage, Digitaria sanguinalis (Digitaria sanguinalis; Dose 15 g/ha): 5 (Level 5: growth control rate is above 85%) | Weeding effect in post-emergence stage, Eleusine indica (Eleusine indica; Dose 15 g/ha): 5 (Level 5: growth control rate is above 85%) | Weeding effect in post-emergence stage, Setaria viridis (Setaria viridis; Dose 15 g/ha): 5 (Level 5: growth control rate is above 85%) | Weeding effect in post-emergence stage, Abutilon theophrasti (Abutilon theophrasti; Dose 15 g/ha): 5 (Level 5: growth control rate is above 85%)

CSCCOC(=O)[C@@H](C)O/N=C/c1cc(-n2c(=O)cc(C(F)(F)F)n(C)c2=O)c(F)cc1Cl [234(R)]
Weeding effect in post-emergence stage, Echinochloa crusgalli (Echinochloa crusgalli; Dose 15 g/ha): 5 (Level 5: growth control rate is above 85%) | Weeding effect in post-emergence stage, Alopecurus japonicus (Alopecurus japonicus; Dose 15 g/ha): 5 (Level 5: growth control rate is above 85%) | Weeding effect in post-emergence stage, Digitaria sanguinalis (Digitaria sanguinalis; Dose 15 g/ha): 5 (Level 5: growth control rate is above 85%) | Weeding effect in post-emergence stage, Eleusine indica (Eleusine indica; Dose 15 g/ha): 5 (Level 5: growth control rate is above 85%) | Weeding effect in post-emergence stage, Setaria viridis (Setaria viridis; Dose 15 g/ha): 5 (Level 5: growth control rate is above 85%) | Weeding effect in post-emergence stage, Abutilon theophrasti (Abutilon theophrasti; Dose 15 g/ha): 5 (Level 5: growth control rate is above 85%)
